# Data: patent US20220160714A1, “METHODS FOR TREATING COLORECTAL CANCER” (ICAHN SCHOOL OF MEDICINE AT MOUNT SINAI, priority 2019, published 2022)
# Where a name gives a salt, the structure may show the parent alone.
# System: patient's personalized Drosophila model 006.1
# Test: Trametinib combination drug screen (Table 4B, experimental pupae numbers)
# Assay type: in vivo
# Protocol: After food was solidified, a mixture of experimental and control embryos (at a 1:2 ratio based on expected Mendelian ratios) were aliquoted into each drug/food tube (15 μl/tube). […] Embryos for drug screening were generated from the following cross in cages: w/Y; UAS-006.1; UAS ago^RNAi UAS-apc^RNAi/Stub-gal80-T Xw UAS-dicer2; +; byn-gal4 UAS-GFP tub-gal80^ts/TM6, Hu, Tb. Embryos were obtained from each cage for 4-5 consecutive days by providing daily a fresh apple juice plate with yeast paste. Egg lays were performed at 22° C. to minimize transgene expression during embryogenesis to prevent embryonic defects or lethality that could not potentially be rescued by drug feeding. After embryos were aliquoted, drug tubes were transferred to 25° C. to induce transgene expression. After 2 weeks, the number of surviving experimental pupae (EP) were counted in each tube.
# DMSO and Trametinib alone served as controls. […] Statistical analysis was performed as described above.
# [1] = drug screened in combination with trametinib
# [2] = drug screened in combination with trametinib, mean of 8 replicates
Structure (SMILES),"EP (raw experimental pupae numbers), replicate 1 [1]","EP (raw experimental pupae numbers), replicate 2 [1]","EP (raw experimental pupae numbers), replicate 3 [1]","EP (raw experimental pupae numbers), replicate 4 [1]","EP (raw experimental pupae numbers), replicate 5 [1]","EP (raw experimental pupae numbers), replicate 6 [1]","EP (raw experimental pupae numbers), replicate 7 [1]","EP (raw experimental pupae numbers), replicate 8 [1]",EP mean [2],EP mean (in vivo)
CC(C)N(CCCCOCC(=O)NS(C)(=O)=O)c1cnc(-c2ccccc2)c(-c2ccccc2)n1 [selexipag],3,0,1,0,2,4,4,2,2,
CN1CCC(=C2c3ccccc3C=Cc3ccccc32)CC1 [cyproheptadine HCl],0,0,0,0,3,0,1,3,0.875,
C=CC[C@@H]1/C=C(\C)C[C@H](C)C[C@H](OC)[C@H]2O[C@@](O)(C(=O)C(=O)N3CCCC[C@H]3C(=O)O[C@H](/C(C)=C/[C@@H]3CC[C@@H](O)[C@H](OC)C3)[C@H](C)[C@@H](O)CC1=O)[C@H](C)C[C@@H]2OC [Tacrolimus],0,0,0,3,0,1,2,0,0.75,
CC(C)(C)c1cc(C(C)(C)C)c(NC(=O)c2c[nH]c3ccccc3c2=O)cc1O [ivacaftor],0,0,7,0,3,3,1,2,2,
CN1CCN(C2=Nc3cc(Cl)ccc3Nc3ccccc32)CC1 [clozapine],1,0,0,0,3,2,1,2,1.125,
C[C@@H](c1ncncc1F)[C@](O)(Cn1cncn1)c1ccc(F)cc1F [Voriconazole],0,0,0,1,2,1,0,1,0.625,
CCOc1cc([C@@H](CS(C)(=O)=O)N2C(=O)c3cccc(NC(C)=O)c3C2=O)ccc1OC [apremilast],0,0,2,0,3,0,0,0,0.625,
C=CC(=O)Nc1cc(Nc2nccc(-c3cn(C)c4ccccc34)n2)c(OC)cc1N(C)CCN(C)C [osimertinib],0,0,0,0,0,0,3,1,0.5,
O=C1CCC(N2C(=O)c3ccccc3C2=O)C(=O)N1 (stereo not shown) [thalidomide],1,1,0,1,0,0,0,0,0.375,
O=C(CCCN1CCC(O)(c2ccc(Cl)cc2)CC1)c1ccc(F)cc1 [haloperidol],0,0,2,2,2,1,1,1,1.125,
O=C(O)CSc1nnc(Br)n1-c1ccc(C2CC2)c2ccccc12 [lesinurad sodium],0,0,1,0,1,2,1,0,0.625,
Cc1cnc(NC(=O)C2=C(O)c3ccccc3S(=O)(=O)N2C)s1 [meloxicam],0,0,0,3,1,1,0,1,,
Cc1cc(/C=C/c2ccc3cc(N(C)C)ccc3[n+]2C)c(C)n1-c1ccccc1 [pyrvinium],4,1,6,4,2,1,3,0,,
CC1(C)O[C@@H]2[C@@H](CO[C@@]3(COS(N)(=O)=O)OC(C)(C)O[C@@H]23)O1 [topiramate],0,0,0,0,3,3,1,0,0.875,
COc1ccc2c(c1)c(CC(=O)O)c(C)n2C(=O)c1ccc(Cl)cc1 [indomethacin],0,0,0,0,1,0,0,0,0.125,
CC(=O)O[C@]1(C(C)=O)CC[C@H]2[C@@H]3C=C(C)C4=CC(=O)CC[C@]4(C)[C@H]3CC[C@@]21C [megestrol acetate],0,1,1,0,1,2,1,2,,1
NCCCNCCSP(=O)(O)O [amifostine],1,1,1,0,1,6,0,0,1.25,
O=c1[nH]c2ccccc2n1CCN1CCN(c2cccc(C(F)(F)F)c2)CC1 [flibanserin],0,0,3,0,0,0,1,0,0.5,
CCOc1ccc(Cc2cc([C@@H]3O[C@H](CO)[C@@H](O)[C@H](O)[C@H]3O)ccc2Cl)cc1 [dapagliflozin],0,1,1,1,3,5,2,0,1.625,
CCCCCCCCCCCCCCCC[N+](C)(C)CCN(Cc1ccc(OC)cc1)c1ncccn1 [thonzonium bromide],0,0,1,0,2,1,1,3,1,
